Measured values taken from the supplement of paper PMC11061612.

Columns and labels:
[1] = compound: CC(=O)Nc1cccc(-n2c(=O)n(C3CC3)c(=O)c3c(Nc4ccc(I)cc4F)n(C)c(=O)c(C)c32)c1 [Trametinib]; details: max 1 µM
How it was run: (§1)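 Cancer cell lines were plated in 1536-well plates in 7.5 μl of DMEM/F12 or RPMI with 10% FBS and kept 24 hours at 37°C and 5% CO2 before 72 hours of dosing, with final DMSO typically 0.2%. CellTiter-Glo 2.0 luminescence measured viability, scaled between blank-well and DMSO-well means. Dose responses were fitted to a two-parameter logistic curve with a non-linear mixed effects model. This fit gives the single-agent IC50.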

[2] = compound: C[C@@H](Oc1cc(-c2cnn(C3CCNCC3)c2)cnc1N)c1c(Cl)ccc(F)c1Cl [Crizotinib]; details: max 10 µM
How it was run: as §1

[3] = compound: CCc1c2c(nc3ccc(O)cc13)-c1cc3c(c(=O)n1C2)COC(=O)[C@]3(O)CC [SN-38]; details: max 0.3 µM
How it was run: as §1

[4] = compound: COc1cccc(OCCCN)c1-c1cc(Nc2cnc(C#N)cn2)n[nH]1 [Prexasertib]; details: max 1 µM
How it was run: as §1

[5] = compound: C[C@@H](c1ccc2nccn2c1)n1nnc2ncc(-c3cnn(C)c3)nc21 [Savolitinib]; details: max 1 µM
How it was run: as §1

[6] = compound: CS(=O)(=O)CCNCc1ccc(-c2ccc3ncnc(Nc4ccc(OCc5cccc(F)c5)c(Cl)c4)c3c2)o1 [Lapatinib]; details: max 10 µM
How it was run: as §1

[7] = compound: COc1cc2ncnc(Nc3ccc(F)c(Cl)c3)c2cc1OCCCN1CCOCC1 [Gefitinib]; details: max 10 µM
How it was run: as §1

[8] = compound: CC1(C)CCC(CN2CCN(c3ccc(C(=O)NS(=O)(=O)c4ccc(NCC5CCOCC5)c([N+](=O)[O-])c4)c(Oc4cnc5[nH]ccc5c4)c3)CC2)=C(c2ccc(Cl)cc2)C1 [Venetoclax]; details: max 1 µM
How it was run: as §1

[9] = compound: C=CCn1c(=O)c2cnc(Nc3ccc(N4CCN(C)CC4)cc3)nc2n1-c1cccc(C(C)(C)O)n1 [AZD1775]; details: max 3 µM
How it was run: as §1

[10] = compound: CC1=CN2[C@@H](C1)C=NC3=CC(=C(C=C3C2=O)OC)OCCCCCOC4=C(C=C5C(=C4)N=C[C@@H]6CC(=CN6C5=O)C)OC [SG3199]; details: max 0.001 µM
How it was run: as §1

[11] = compound: C[C@@H]1COCCN1C2=NC(=NC(=C2)C3(CC3)[S@](=N)(=O)C)C4=C5C=CNC5=NC=C4 [AZD6738]; details: max 10 µM
How it was run: as §1

[12] = compound: Cc1nc(-c2cn3c(n2)-c2ccc(-c4cnn(C(C)(C)C(N)=O)c4)cc2OCC3)n(C(C)C)n1 [Taselisib]; details: max 10 µM
How it was run: as §1

[13] = compound: CC(C)n1c(=O)n(C)c2cnc3cc(F)c(-c4ccc(OCCCN5CCCCC5)nc4)cc3c21 [AZD1390]; details: max 0.3 µM
How it was run: as §1

[14] = compound: COc1cc(Nc2ncc3c(n2)-c2ccc(Cl)cc2C(c2c(F)cccc2OC)=NC3)ccc1C(=O)O [Alisertib]; details: max 10 µM
How it was run: as §1

[15] = compound: Cc1cc2ncnn2cc1Nc1ncc2c(n1)n(C1CCOCC1)c(=O)n2C [AZD7648]; details: max 10 µM
How it was run: as §1

[16] = compound: COc1nnc2ccc(N3CCC(c4ccc(OCCN5CCN(C)C(=O)[C@H]5C)cc4)CC3)nn12 [AZD5153]; details: max 1 µM
How it was run: as §1

[17] = compound: CCN(CCO)CCCOc1ccc2c(Nc3cc(CC(=O)Nc4cccc(F)c4)[nH]n3)ncnc2c1 [AZD2811]; details: max 1 µM
How it was run: as §1

[18] = compound: CC1=C(C(=CC=C1)Cl)NC(=O)C2=CN=C(S2)NC3=CC(=NC(=N3)C)N4CCN(CC4)CCO [Dasatinib]; details: max 2 µM
How it was run: as §1

[19] = compound: Cn1cnc2c(F)c(Nc3ccc(Br)cc3Cl)c(C(=O)NOCCO)cc21 [Selumetinib]; details: max 10 µM
How it was run: as §1

[20] = compound: CC(=O)c1c(C)c2cnc(Nc3ccc(N4CCNCC4)cn3)nc2n(C2CCCC2)c1=O [Palbociclib]; details: max 10 µM
How it was run: as §1

[21] = compound: C1CN(CCC1(C(=O)N[C@@H](CCO)C2=CC=C(C=C2)Cl)N)C3=NC=NC4=C3C=CN4 [Capivasertib]
How it was run: as §1

[22] = compound: O=C(c1cc(Cc2n[nH]c(=O)c3ccccc23)ccc1F)N1CCN(C(=O)C2CC2)CC1 [Olaparib]
How it was run: as §1

[23] = compound: C[C@@H](Nc1cc(F)cc(F)c1)c1cc(C(=O)N(C)C)cc2c(=O)cc(N3CCOCC3)oc12 [AZD8186]; details: max 3 µM
How it was run: as §1

[24] = compound: COc1cccc2c1C(=O)c1c(O)c3c(c(O)c1C2=O)C[C@@](O)(C(=O)CO)C[C@@H]3O[C@H]1C[C@H](N)[C@H](O)[C@H](C)O1 [Doxorubicin]; details: max 1 µM
How it was run: as §1

[25] = compound: CN(C)CCCOc1ccc(-c2ccc3ncc4c(c3c2)n(C2CCOCC2)c(=O)n4C)cn1 [AZD0156]; details: max 3 µM
How it was run: as §1

[26] = compound: Cc1c2c(nn1C)CSCc1cc(n(C)n1)CSc1cc(c3ccccc3c1)OCCCc1c(C(=O)O)n(C)c3c-2c(Cl)ccc13 [AZD5991]; details: max 1 µM
How it was run: as §1

[27] = compound: CN(CC[C@H](CSC1=CC=CC=C1)NC2=C(C=C(C=C2)S(=O)(=O)NC(=O)C3=CC=C(C=C3)N4CCC(CC4)[C@H](C5=CC=CC=C5C6=CC=C(C=C6)Cl)O)S(=O)(=O)C(F)(F)F)CCO [AZD4320]; details: max 1 µM
How it was run: as §1

| Cell Line | IC50, cell viability 72 h [1] | IC50, cell viability 72 h [2] | IC50, cell viability 72 h [3] | IC50, cell viability 72 h [4] | IC50, cell viability 72 h [5] | IC50, cell viability 72 h [6] | IC50, cell viability 72 h [7] | IC50, cell viability 72 h [8] | IC50, cell viability 72 h [9] | IC50, cell viability 72 h [10] | IC50, cell viability 72 h [11] | IC50, cell viability 72 h [12] | IC50, cell viability 72 h [13] | IC50, cell viability 72 h [14] | IC50, cell viability 72 h [15] | IC50, cell viability 72 h [16] | IC50, cell viability 72 h [17] | IC50, cell viability 72 h [18] | IC50, cell viability 72 h [19] | IC50, cell viability 72 h [20] | IC50, cell viability 72 h ([21]; max 10 µM) | IC50, cell viability 72 h ([22]; max 10 µM) | IC50, cell viability 72 h [23] | IC50, cell viability 72 h [24] | IC50, cell viability 72 h [25] | IC50, cell viability 72 h [26] | IC50, cell viability 72 h [27] | IC50, cell viability 72 h ([21]; max 3 µM) | IC50, cell viability 72 h ([22]; max 3 µM) |
| --- | --- | --- | --- | --- | --- | --- | --- | --- | --- | --- | --- | --- | --- | --- | --- | --- | --- | --- | --- | --- | --- | --- | --- | --- | --- | --- | --- | --- | --- |
| 8-MG-BA (Glioblastoma) | > 1 µM | 8.8 µM | 0.0154 µM | 0.0211 µM | > 1 µM | 8.81 µM | > 10 µM | > 1 µM | 0.43 µM | > 0.001 µM | 2.24 µM | 3.73 µM | > 0.3 µM | > 10 µM | > 10 µM | 0.136 µM | > 1 µM | 0.255 µM | > 10 µM | > 10 µM | > 10 µM | > 10 µM | > 3 µM | 0.393 µM | > 3 µM | 0.676 µM | > 1 µM | – | – |
| A3-KAW (B-Cell Non-Hodgkin's Lymphoma) | 0.997 µM | 3.98 µM | 0.00318 µM | 0.00737 µM | > 1 µM | > 10 µM | > 10 µM | > 1 µM | 0.117 µM | > 0.001 µM | 0.355 µM | > 10 µM | > 0.3 µM | 0.0686 µM | > 10 µM | 0.0111 µM | 0.887 µM | > 2 µM | > 10 µM | 1.3 µM | > 10 µM | 8.45 µM | > 3 µM | 0.0863 µM | 1.35 µM | 0.0217 µM | > 1 µM | – | – |
| A498 (Kidney Carcinoma) | > 1 µM | > 10 µM | > 0.3 µM | 0.201 µM | > 1 µM | > 10 µM | > 10 µM | > 1 µM | 1.69 µM | > 0.001 µM | > 10 µM | 9.45 µM | > 0.3 µM | > 10 µM | > 10 µM | > 1 µM | > 1 µM | > 2 µM | > 10 µM | > 10 µM | 4.66 µM | > 10 µM | 0.425 µM | > 1 µM | > 3 µM | > 1 µM | > 1 µM | – | – |
| A549 (Lung Adenocarcinoma) | 0.0297 µM | 6.62 µM | 0.07 µM | > 1 µM | > 1 µM | 2.75 µM | > 10 µM | > 1 µM | 2.46 µM | > 0.001 µM | 6.07 µM | 1.72 µM | > 0.3 µM | 2.34 µM | > 10 µM | 0.0952 µM | 0.777 µM | 0.17 µM | 1.05 µM | 8.16 µM | 6.93 µM | > 10 µM | > 3 µM | 0.309 µM | > 3 µM | > 1 µM | > 1 µM | – | – |
| ARH-77 (Non-Cancerous) | > 1 µM | > 10 µM | 0.00668 µM | 0.0155 µM | > 1 µM | 8.04 µM | > 10 µM | > 1 µM | 0.189 µM | > 0.001 µM | 1.85 µM | 0.528 µM | > 0.3 µM | 1.17 µM | > 10 µM | 0.0618 µM | > 1 µM | 0.233 µM | > 10 µM | > 10 µM | 1.76 µM | > 10 µM | 1.27 µM | 0.143 µM | 1.79 µM | 0.229 µM | 0.1 µM | – | – |
| BT-483 (Breast Carcinoma) | – | – | – | – | – | – | – | – | > 3 µM | – | – | – | – | – | – | – | – | – | – | – | – | – | – | – | > 3 µM | – | – | > 3 µM | > 3 µM |
| CAL-29 (Bladder Carcinoma) | > 1 µM | > 10 µM | 0.0143 µM | 0.0418 µM | > 1 µM | > 10 µM | > 10 µM | > 1 µM | 0.762 µM | > 0.001 µM | 6.08 µM | 0.218 µM | > 0.3 µM | > 10 µM | > 10 µM | > 1 µM | > 1 µM | > 2 µM | > 10 µM | > 10 µM | > 10 µM | > 10 µM | > 3 µM | > 1 µM | > 3 µM | > 1 µM | > 1 µM | – | – |
| CAS-1 (Glioblastoma) | 0.465 µM | > 10 µM | 0.202 µM | 0.158 µM | > 1 µM | > 10 µM | > 10 µM | > 1 µM | 1.6 µM | > 0.001 µM | > 10 µM | > 10 µM | > 0.3 µM | 4.13 µM | > 10 µM | 0.345 µM | > 1 µM | 0.931 µM | > 10 µM | > 10 µM | 7.05 µM | > 10 µM | > 3 µM | > 1 µM | > 3 µM | > 1 µM | > 1 µM | – | – |
| COLO-824 (Breast Carcinoma) | > 1 µM | 4.32 µM | > 0.3 µM | 0.0646 µM | > 1 µM | 7.96 µM | > 10 µM | 0.214 µM | 0.868 µM | > 0.001 µM | 5.51 µM | 2.46 µM | > 0.3 µM | 3.01 µM | > 10 µM | 0.233 µM | 0.0558 µM | > 2 µM | > 10 µM | > 10 µM | 7.34 µM | > 10 µM | > 3 µM | > 1 µM | > 3 µM | > 1 µM | 0.0333 µM | – | – |
